According to PMC3888668 (Biological psychiatry, 2008):
Where a name gives a salt, the structure may show the parent alone. Read-outs that look alike come from different tables or passages of the source. Marks after values point to notes of the source that are not given here.

What was measured:
[1] = system: high-ethanol–consuming rats; settings: for Preference for Ethanol: intermittent access to 20% ethanol, 24 hours, mean ± SEM, n = 12; for Ethanol consumption compared with vehicle: after 24 hours of ethanol access, intermittent access 20% ethanol; for Ethanol intake after 30 min: after 30 min of ethanol access, Figures 2A-2C in Supplement 1
[2] = system: high-ethanol–consuming rats; settings: .3–1 mg/kg, IP; 30 min and 24 hours of ethanol access; cited from earlier work
[3] = system: low-ethanol–consuming rats; test: Continuous-access 10% ethanol two-bottle-choice drinking paradigm; settings: for Preference for Ethanol: continuous access to 10% ethanol, mean ± SEM, n = 12
[4] = target: T1, DOP-R (Rattus norvegicus, UniProt P33533); assay type: biochemical; settings: striatal membranes
T1 sequence (P33533 whole entry): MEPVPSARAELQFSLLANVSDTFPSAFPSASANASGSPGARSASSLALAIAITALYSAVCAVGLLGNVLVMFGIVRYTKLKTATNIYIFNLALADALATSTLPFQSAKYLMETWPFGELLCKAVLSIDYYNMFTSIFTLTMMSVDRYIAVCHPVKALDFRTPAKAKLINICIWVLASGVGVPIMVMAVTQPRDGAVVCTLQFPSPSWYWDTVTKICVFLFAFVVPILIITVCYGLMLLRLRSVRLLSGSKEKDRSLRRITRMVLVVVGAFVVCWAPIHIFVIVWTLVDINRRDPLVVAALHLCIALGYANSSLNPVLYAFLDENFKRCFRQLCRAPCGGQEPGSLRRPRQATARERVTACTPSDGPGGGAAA

[5] = system: rats; test: Conditioned place preference; assay type: in vivo, rat; settings: Figure 1C in Supplement 1
[6] = Preliminary pharmacokinetics in plasma; assay type: in vivo; settings: IP, rat plasma
[7] = system: rats; test: Anxiety; assay type: in vivo, rat; settings: Figure 1D in Supplement 1
[8] = system: high-ethanol–consuming rats; test: Daily administration for 28 days, intermittent-access 20% ethanol, naive rats
[9] = system: rats; test: Morphine-mediated analgesia; assay type: in vivo, rat; settings: Figures 1A and 1B in Supplement 1
[10] = target: μ opioid peptide receptor (MOP-R); settings: cited from earlier work
[11] = target: δ opioid peptide receptor (DOP-R); settings: cited from earlier work
[12] = target: T1, DOP-R; assay type: biochemical; settings: [35S]GTPγS binding

## O=C1CC[C@@]2(O)[C@H]3Cc4ccc(O)c5c4[C@@]2(CCN3CC2CC2)[C@H]1O5 [Naltrexone]
[1]; 5 mg/kg IP
  Preference for Ethanol: 55.2 ± 7.1%
[1]; 15 mg/kg IP
  Preference for Ethanol: 54.1 ± 6.4%
[1]; 30 mg/kg IP
  Preference for Ethanol: 54.4 ± 4.7%
[1]; 15 and 30 mg/kg IP
  Ethanol consumption compared with vehicle: significantly reduce ethanol consumption
[1]
  Ethanol intake after 30 min: selectively reduced ethanol intake
[2]
  Ethanol intake at lower doses: reduce ethanol intake after 30 min but not after 24 hours
[3]; 5 mg/kg IP, 24 hours
  Preference for Ethanol: 32.7 ± 5.9%
[3]; 15 mg/kg IP, 24 hours
  Preference for Ethanol: 33.8 ± 7.3%
[3]; 30 mg/kg IP, 24 hours
  Preference for Ethanol: 37.0 ± 4.9%
[3]; all doses (5, 15, 30 mg/kg IP), after 24 hours of access, continuous access 10% ethanol
  Ethanol consumption compared with vehicle: did not produce any significant effect on ethanol consumption
[3]; limited access period 1 hour, continuous access 10% ethanol, data not shown
  Ethanol consumption after a limited access period: a reduction in ethanol consumption was observed

## Oc1ccc2c3c1O[C@H]1c4[nH]c5ccccc5c4C[C@@]4(O)[C@@H](C2)N(CC2CC2)CC[C@]314 [Naltrindole, naltrindole]
[1]; 1 mg/kg IP
  Preference for Ethanol: 53.4 ± 7.9%
[1]; 5 mg/kg IP
  Preference for Ethanol: 55.1 ± 8.3%
[1]; 10 mg/kg IP
  Preference for Ethanol: 48.8 ± 6.1%
[1]; all doses tested, IP
  Ethanol consumption compared with vehicle: did not significantly affect ethanol consumption
[3]; 1 mg/kg IP, 24 hours
  Preference for Ethanol: 38.2 ± 3.7%
[3]; 5 mg/kg IP, 24 hours
  Preference for Ethanol: 31.7 ± 4.0%
[3]; 10 mg/kg IP, 24 hours
  Preference for Ethanol: 31.0 ± 3.3%
[3]; 5 and 10 mg/kg IP, 24 hours, continuous access 10% ethanol
  Ethanol consumption compared with vehicle: significantly reduce ethanol consumption
[4]; Mean (± SEM) IC50 for Striatal DOP-R Inhibition, DPDPE Inhibition, DPDPE (10 μmol/L)-stimulated [35S]GTPγS binding
  IC50: 0.4 ± 0.02 nM
[4]; Mean (± SEM) IC50 for Striatal DOP-R Inhibition, SNC80 Inhibition, SNC80 (10 μmol/L)-stimulated [35S]GTPγS binding
  IC50: 31 ± 3.9 nM
[4]; Mean (± SEM) IC50 for Striatal DOP-R Inhibition, TAN67 Inhibition, TAN67 (10 μmol/L)-stimulated [35S]GTPγS binding
  IC50: > 10000 nM

## Oc1ccc2c3c1O[C@H]1c4ncc(-c5ccc(Cl)cc5)cc4C[C@@]4(O)[C@@H](C2)N(CC2CC2)CC[C@]314 [SoRI-9409, 5’-(4-Chlorophenyl)-17-(cyclopropylmethyl)-6,7-didehydro-3,14-dihydroxy-4,5-α-epoxypyrido-[2’,3’:6,7]morphinan]
[1]; 5 mg/kg IP
  Preference for Ethanol: 49.9 ± 7.3%
[1]; 15 mg/kg IP
  Preference for Ethanol: 42.1 ± 7.4 ^a %
[1]; 30 mg/kg IP
  Preference for Ethanol: 32.8 ± 4.9 ^a %
[1]
  Ethanol intake after 30 min: selectively reduced ethanol intake
[1]; all doses tested, IP
  Ethanol consumption compared with vehicle: significantly reduced ethanol consumption at all doses
[1]; high-ethanol–consuming animals
  Effectiveness at reducing ethanol consumption compared with naltrexone or naltrindole: threefold more effective
[5]
  Conditioned place preference or aversion: does not produce conditioned place preference or aversion
[6]
  Detection in plasma after dosing: still detectable in plasma at 12 hours after dosing
[6]; preliminary investigation
  Elimination half-life: 2.5 h
[7]
  Anxiolytic or anxiogenic effect: is not anxiolytic or anxiogenic
[8]; 5 mg/kg IP daily for 28 days (12 ethanol exposures), n = 16
  Escalation and maintenance of ethanol intake compared with vehicle: significantly reduced the escalation and maintenance of ethanol intake
[8]; 5 mg/kg IP daily, for up to 28 days
  Reduction of ethanol intake compared with saline-treated rats: > 50%
[9]
  Induction of analgesia and hyperalgesia: did not reduce morphine-mediated analgesia or induce analgesia and hyperalgesia
[3]; 5 mg/kg IP, 24 hours, continuous access 10% ethanol
  Ethanol consumption compared with vehicle: but not the 5-mg/kg dose
[3]; 5 mg/kg IP, 24 hours
  Preference for Ethanol: 39.5 ± 8.6%
[3]; 15 mg/kg IP, 24 hours
  Preference for Ethanol: 32.4 ± 7.3 ^b %
[3]; 30 mg/kg IP, 24 hours
  Preference for Ethanol: 24.0 ± 6.2 ^b %
[3]; 15 and 30 mg/kg IP, 24 hours, continuous access 10% ethanol
  Ethanol consumption compared with vehicle: significantly reduce ethanol consumption
[4]; read-out: Mean (± SEM) IC50 for Striatal DOP-R Inhibition, DPDPE Inhibition, DPDPE (10 μmol/L)-stimulated [35S]GTPγS binding
  IC50: 3.5 ± 0.3 nM
[4]; read-out: Mean (± SEM) IC50 for Striatal DOP-R Inhibition, SNC80 Inhibition, SNC80 (10 μmol/L)-stimulated [35S]GTPγS binding
  IC50: 31 ± 3.2 nM
[4]; read-out: Mean (± SEM) IC50 for Striatal DOP-R Inhibition, TAN67 Inhibition, TAN67 (10 μmol/L)-stimulated [35S]GTPγS binding
  IC50: 56 ± 8.2 nM
[10]; read-out: Ki, binding affinity for the MOP-R
  Ki: 51 ± 8 nM
[10]; versus naltrexone structure
  reduced binding affinity for the MOP-R relative to naltrexone: approximately 20 fold
[11]; read-out: Ki, binding affinity at the DOP-R
  Ki: 2.2 ± 0.2 nM
[11]; versus naltrexone structure
  higher binding affinity at the DOP-R relative to naltrexone: approximately 20 fold

## CN1CCC2(c3cccc(O)c3)Cc3nc4ccccc4cc3CC2C1 (stereo not drawn) [TAN67, (2-methyl-4a (α)-(3-hydroxyphenyl)-1,2,3,4,4a,5,12, 12a(α)-octahydro-quinolino[2,3,3,g]isoquinoline) dihydrobromide]
[12]; read-out: Mean (± SEM) EC50 for DOP-R Stimulation, Spinal Cord, spinal cord membranes
  EC50: 3700 ± 2200 nM
[12]; read-out: Mean (± SEM) EC50 for DOP-R Stimulation, Striatum, striatum membranes
  EC50: 372 ± 20 nM
